US20160031909A1, “PORPHYRAZINE OPTICAL AND DUAL OPTICAL/ MR CONTRAST AND THERAPEUTIC AGENTS” (HOFFMAN/BARRETT, LLC, priority 2013, published 2016)
Entries after “also recorded” stand apart in the source; their conditions may differ.

How the values were obtained:
[1] = Ex vivo biodistribution by ICP-MS; type: in vivo, athymic nude mice
Experimental: Cu-Pz-Gd(III) was examined as a contrast agent in vivo in an orthotopic breast tumor model in athymic nude mice. MDA-MB-231 breast tumor cells expressing mCherry fluorescent protein were implanted in the mammary fat pad of mice and tumors were allowed to grow to about 5 mm in diameter at which time mice were treated with 450 nmol (50 mg/kg) Cu-Pz-Gd(III) together with saline treated control mice (FIG. 3A).
Images were acquired at baseline, and 4, 24, and 48 hours after injection of 150 μL of imaging agent via the tail vein. One control animal was injected with saline; the remaining 9 animals were injected with 450 nmol Cu-Pz-Gd(III). Three animals were sacrificed after 4 hour, 24 hour, and 48 hour timepoints, respectively; the organs were collected for ICP-MS (described below) to measure biodistribution.
Mice were sacrificed by CO2 inhalation followed by cervical dislocation. Blood, urine (where possible), tumor, liver, kidney, spleen, heart, lungs, and samples of skin and skeletal muscle were collected for elemental analysis by ICP-MS as described below. In one additional mouse that was not treated with an imaging agent, the tumor was collected and fixed in 10% formalin for histological analysis. […]

[2] = HPLC analysis of urine collected from mice; type: in vivo, athymic nude mice
MDA-MB-231 cells = assay: In vitro cellular uptake, Gd(III) content by ICP-MS; type: cell-based; settings: MDA-MB-231, 24 hours, compared with equivalent DOTA-Gd(III)
Experimental: Breast tumor cells (MDA-MB-231) were treated with M-Pz-Gd(III) complexes at varying concentrations for 24 hours, washed, digested in acid, and Gd(III) content was measured by ICP-M S (FIG. 1). An M-Pz-Gd(III) dose of 50 μM corresponds to an overall Gd(III) dose of 100 μM because two Gd(III) ions are present per molecule. Cells also were treated with an equivalent amount of DOTA-Gd(III), an agent known not to cross cell membranes.
After cell harvesting, an aliquot of the cell suspensions was mixed with Guava ViaCount reagent and allowed to stain at room temperature for at least 5.0 minutes (no longer than 20 minutes). Stained samples were vortexed for 10 seconds and counted. Percent cell viability was determined via manual analysis using a Guava EasyCyte Mini Personal Cell Analyzer (PCA) and ViaCount software module. For each sample, 1000 events were acquired with dilution factors that were determined based upon optimum machine performance (about 25-70 cells/μL).
Quantification of Gd was accomplished using ICP-MS of acid digested samples. Solution samples were digested in ACS reagent grade nitric acid (70%, Sigma, St. Louis, Mo., USA) and incubated in a water bath at 70° C. for at least 2 hours to allow for complete sample digestion. […]

Water solubility = type: physicochemical
Experimental: The pz platform is diol pz 285, which was prepared and activated for nucleophilic substitution by arenesulfonylation to produce bis-tosylate pz 286 as previously described (13). Subsequent nucleophilic substitution of pz 286 with excess sodium azide gave diazide pz 288, which was suitable for conjugation via cycloaddition reactions with the alkyne-functionalized Gd595. (Scheme 1). The use of catalytic copper(II) sulfate in this conjugation reaction partially metallates the pz core. To address this issue, pz 288 either was metallated with ZnCl2 prior to reaction with the alkyne or a stoichiometric amount of the […] catalyst was used to ensure that the pz core was completely cuprated. Standard cycloaddition reaction conditions were subsequently used to conjugate metallated pz diazides with Gd595 to produce Zn-Pz-Gd(III) and Cu-Pz-Gd(III) conjugates, which were isolated by preparative HPLC in 52% and 57% isolated yields, respectively. Trace amounts of Zn-Pz-Gd(III) were transmetallated to Cu-Pz-Gd(III), but this small amount was removed during purification.

In the case of “Cu[Pz(C19H28N8O7Gd)2]. Pz=18,21-bis(2-(1H-1,2,3-triazole-4-yl) ethoxy)-tris-[1,4-dioxino[g,l,q](2R,3R)-2,3-dimethoxy-2,3-dimethyll 25H,27H-benzo[b]porphyrazine; C19H28N8O7Gd=N-methyl-2-aminoacetamide-4,7,10-tris(carboxymethyl)-1,4,7,10-tetraazacyclododecylgadolinium(III)) [Cu-Pz-Gd(III)]”, the route of clearance ([1]; biodistribution data by ICP-MS) is reported as “rapidly cleared, primarily through the kidneys; also recorded: primarily through the kidneys and liver; also recorded: cleared through the kidneys and liver”, the tumor accumulation ([1]; ex vivo biodistribution study) is reported as “accumulates in tumors” and the “form cleared in urine” value [2] is reported as “cleared intact”. For the same substance, the “Cellular uptake, Gd(III) content per cell” value (MDA-MB-231 cells) was “two-fold increase” and the water solubility (Water solubility) was “freely water soluble”.
